According to EPA's CvTdb concentration-time database:

Legend:
Rat [1] = assay: concentration in brain after dosing; details: 5 min; dosed: alpha-Thujone; 50 mg/kg; oral; Female; Harlan Sprague Dawley
Rat [2] = assay: concentration in brain after dosing; details: 3 h; dosed: alpha-Thujone; 50 mg/kg; oral; Male; Harlan Sprague Dawley
Rat [3] = assay: concentration in plasma after dosing; details: 2 min; dosed: alpha-Thujone; 50 mg/kg; oral; Female; Harlan Sprague Dawley
Rat [4] = assay: concentration in plasma after dosing; details: 12 h; dosed: alpha-Thujone; 25 mg/kg; oral; Male; Harlan Sprague Dawley
Rat [5] = assay: concentration in plasma after dosing; details: 1.5 h; dosed: alpha-Thujone; 50 mg/kg; oral; Male; Harlan Sprague Dawley
Rat [6] = assay: concentration in plasma after dosing; details: 5 min; dosed: alpha-Thujone; 25 mg/kg; oral; Male; Harlan Sprague Dawley
Rat [7] = assay: concentration in plasma after dosing; details: dosed: Pyridine, 5 mg/kg, iv, Male, F344
Rat [8] = assay: concentration in plasma after dosing; details: 20 min; dosed: Pyridine; 10 mg/kg; iv; Male; F344
Rat [9] = assay: concentration in plasma after dosing; details: dosed: Pyridine, 5 mg/kg, iv, Male, F344; remark: listed apart in the source
Rat [10] = assay: concentration in plasma after dosing; details: dosed: Methyleugenol, 37 mg/kg, oral, Female, F344/N
Rat [11] = assay: concentration in plasma after dosing; details: dosed: Methyleugenol, 37 mg/kg, iv, Female, F344
Mouse [12] = assay: concentration in plasma after dosing; details: 0.25 h; dosed: 2-Hydroxy-4-methoxybenzophenone; 50 mg/kg; iv; Female; B6C3F1
Mouse [13] = assay: concentration in plasma after dosing; details: 10 min; dosed: 2-Hydroxy-4-methoxybenzophenone; 50 mg/kg; iv; Female; B6C3F1
Rat [14] = assay: concentration in plasma after dosing; details: dosed: 2-Hydroxy-4-methoxybenzophenone, 250 mg/kg, oral, Female, F344
Rat [15] = assay: concentration in plasma after dosing; details: dosed: 2-Hydroxy-4-methoxybenzophenone, 100 mg/kg, oral, Male, F344
Mouse [16] = assay: concentration in plasma after dosing; details: 0.25 h; dosed: 2-Hydroxy-4-methoxybenzophenone; 500 mg/kg; oral; Female; B6C3F1
Mouse [17] = assay: concentration in plasma after dosing; details: 10 min; dosed: 2-Hydroxy-4-methoxybenzophenone; 250 mg/kg; oral; Male; B6C3F1
Rat [18] = assay: concentration in plasma after dosing; details: dosed: 2-Hydroxy-4-methoxybenzophenone, 250 mg/kg, oral, Male, F344
Rat [19] = assay: concentration in plasma after dosing; details: dosed: 2-Hydroxy-4-methoxybenzophenone, 100 mg/kg, oral, Female, F344
Mouse [20] = assay: concentration in plasma after dosing; details: 3 h; dosed: 2-Hydroxy-4-methoxybenzophenone; 250 mg/kg; oral; Male; B6C3F1
Mouse [21] = assay: concentration in plasma after dosing; details: dosed: 2,4-Dichlorophenoxyacetic acid, 1.0 mg/kg, iv, Male, B6C3F1
Rat [22] = assay: concentration in brain after dosing; details: 6 h; dosed: Perfluorohexane-1-sulphonic acid – potassium salt; 16 mg/kg; oral; Female; Harlan Sprague Dawley
Rat [23] = assay: concentration in brain after dosing; details: 12 h; dosed: Perfluorohexane-1-sulphonic acid – potassium salt; 16 mg/kg; oral; Female; Harlan Sprague Dawley
Rat [24] = assay: concentration in liver after dosing; details: 6 h; dosed: Perfluorohexane-1-sulphonic acid – potassium salt; 16 mg/kg; oral; Female; Harlan Sprague Dawley
Rat [25] = assay: concentration in brain after dosing; details: 192 h; dosed: Perfluorohexane-1-sulphonic acid – potassium salt; 16 mg/kg; oral; Female; F344
Rat [26] = assay: concentration in liver after dosing; details: 6 h; dosed: Perfluorohexane-1-sulphonic acid – potassium salt; 16 mg/kg; oral; Female; Harlan Sprague Dawley; remark: listed apart in the source
Rat [27] = assay: concentration in liver after dosing; details: 96 h; dosed: Perfluorohexane-1-sulphonic acid – potassium salt; 16 mg/kg; oral; Female; Harlan Sprague Dawley
Rat [28] = assay: concentration in kidney after dosing; details: 12 h; dosed: Perfluorohexane-1-sulphonic acid – potassium salt; 16 mg/kg; oral; Female; F344
Rat [29] = assay: concentration in plasma after dosing; details: dosed: Perfluorohexane-1-sulphonic acid – potassium salt, 4 mg/kg, oral, Male, F344
Rat [30] = assay: concentration in kidney after dosing; details: 12 h; dosed: Perfluorohexane-1-sulphonic acid – potassium salt; 16 mg/kg; oral; Female; F344; remark: listed apart in the source
Rat [31] = assay: concentration in kidney after dosing; details: 3 h; dosed: Perfluorohexane-1-sulphonic acid – potassium salt; 16 mg/kg; oral; Female; F344

SMILES: CC(C)[C@]12CC(=O)[C@H](C)[C@H]1C2 [alpha-Thujone]
- concentration in brain (Rat [1]): 994 ng/g
- concentration in brain (Rat [2]): 652 ng/g
- concentration in plasma (Rat [3]): 33.6 ng/mL
- concentration in plasma (Rat [4]): 11.3 ng/mL
- concentration in plasma (Rat [5]): 360 ng/mL
- concentration in plasma (Rat [6]): 570 ng/mL

SMILES: c1ccncc1 [Pyridine]
- concentration in plasma (Rat [7]; 0.05 h): 4210 ng/mL
- concentration in plasma (Rat [7]; 4 h): 2060 ng/mL
- concentration in plasma (Rat [8]): 4020 ng/mL
- concentration in plasma (Rat [9]; 0.5 h): 3400 ng/mL
- concentration in plasma (Rat [9]; 8 h): 874 ng/mL

SMILES: C=CCc1ccc(OC)c(OC)c1 [Methyleugenol]
- concentration in plasma (Rat [10]; 20 min): 146 ng/mL
- concentration in plasma (Rat [10]; 5 h): 5.58 ng/mL
- concentration in plasma (Rat [11]; 2 min): 43100 ng/mL
- concentration in plasma (Rat [11]; 6 h): 68 ng/mL

SMILES: O=C(c1ccccc1)c1ccc(O)cc1O [2,4-Dihydroxybenzophenone]
- concentration in plasma (Mouse [12]): 1260 ng/mL
- concentration in plasma (Mouse [13]): 2270 ng/mL
- concentration in plasma (Rat [14]; 0.25 h): 359 ng/mL
- concentration in plasma (Rat [14]; 4 h): 135 ng/mL
- concentration in plasma (Rat [15]; 0.25 h): 91 ng/mL
- concentration in plasma (Rat [15]; 4 h): 43.8 ng/mL
- concentration in plasma (Mouse [16]): 5480 ng/mL
- concentration in plasma (Mouse [17]): 415 ng/mL
- concentration in plasma (Rat [18]; 0.5 h): 888 ng/mL
- concentration in plasma (Rat [18]; 10 h): 75.5 ng/mL
- concentration in plasma (Rat [19]; 0.5 h): 195 ng/mL
- concentration in plasma (Rat [19]; 5 h): 85.4 ng/mL
- concentration in plasma (Mouse [20]): 316 ng/mL

SMILES: O=C(O)COc1ccc(Cl)cc1Cl [2,4-Dichlorophenoxyacetic acid]
- concentration in plasma (Mouse [21]; 2.5 min): 7760 ng/mL
- concentration in plasma (Mouse [21]; 5 min): 6530 ng/mL
- concentration in plasma (Mouse [21]; 10 min): 9300 ng/mL
- concentration in plasma (Mouse [21]; 0.25 h): 7400 ng/mL
- concentration in plasma (Mouse [21]; 0.5 h): 5390 ng/mL
- concentration in plasma (Mouse [21]; 1 h): 5370 ng/mL
- concentration in plasma (Mouse [21]; 2 h): 1290 ng/mL
- concentration in plasma (Mouse [21]; 2.5 h): 211 ng/mL
- concentration in plasma (Mouse [21]; 3 h): 248 ng/mL

SMILES: O=S(=O)([O-])C(F)(F)C(F)(F)C(F)(F)C(F)(F)C(F)(F)C(F)(F)F.[K+] [Perfluorohexane-1-sulphonic acid – potassium salt]
- concentration in brain (Rat [22]): 1090 ng/g
- concentration in brain (Rat [23]): 1190 ng/g
- concentration in liver (Rat [24]): 48400 ng/g
- concentration in brain (Rat [25]): 929 ng/g
- concentration in liver (Rat [26]): 33000 ng/g
- concentration in liver (Rat [27]): 10200 ng/g
- concentration in kidney (Rat [28]): 35900 ng/g
- concentration in plasma (Rat [29]; 6 h): 28700 ng/mL
- concentration in plasma (Rat [29]; 192 h): 19100 ng/mL
- concentration in kidney (Rat [30]): 37000 ng/g
- concentration in kidney (Rat [31]): 18100 ng/g
